Results as given in PMC10584170, “Machine learning-based phenotypic imaging to characterise the targetable biology of Plasmodium falciparum male gametocytes for the development of transmission-blocking antimalarials” (PLOS Pathogens, 2023).

Columns and labels:
[1] = tested on: P. falciparum male gametocytes; test: P. falciparum Dual Gamete Formation Assay (PfDGFA), male readout (exflagellation); type: cell-based, Plasmodium falciparum NF54; conditions: for Average inhibition male (%): average of replicates; for % inhibition male (individual replicates) R1: replicate R1; for % inhibition male (individual replicates) R3: replicate R3; for % inhibition male (individual replicates) R4: replicate R4; for Activity: hit = >50% inhibition in male or female readout in at least 3 replicates, 0 = no class assigned
Summary of the method: (§1)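 Two sex-specific readouts come from one well: male exflagellation centres recorded by brightfield video right after activation, and female gametes scored by Cy3-anti-Pfs25 fluorescence after 24 h at 28°C.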

[2] = tested on: P. falciparum female gametocytes; test: P. falciparum Dual Gamete Formation Assay (PfDGFA), female readout (Pfs25-positive female gametes); type: cell-based, Plasmodium falciparum NF54; conditions: for Average inhibition female (%): average of replicates; for % inhibition female (individual replicates) R1: replicate R1; for % inhibition female (individual replicates) R3: replicate R3; for % inhibition female (individual replicates) R4: replicate R4
Summary of the method: as §1

[3] = 2µM, 24h preincubation with gametocytes prior to induction of gametogenesis
[4] = 2µM, 24h preincubation, hits selected on >50% inhibition in the male readout across replicates
[5] = PfDGFA at 2µM, 24h preincubation
[6] = 2µM, 24h preincubation, hits selected on >50% inhibition in the female readout across replicates
[7] = PfDGFA at 2µM, 24h preincubation with gametocytes
[8] = 2µM, 24h preincubation, number of replicates with >50% inhibition in the male readout
[9] = 2µM, 24h preincubation, number of replicates with >50% inhibition in the female readout
[10] = PfDGFA at 2µM, 24h preincubation with gametocytes prior to induction of gametogenesis

| Compound | Average inhibition male (%) [1, 3] | % inhibition male (individual replicates) R1 [1, 3] | % inhibition male (individual replicates) R3 [1, 3] | % inhibition male (individual replicates) R4 [1, 3] | Average inhibition female (%) [2, 3] | % inhibition female (individual replicates) R1 [2, 3] | % inhibition female (individual replicates) R3 [2, 3] | % inhibition female (individual replicates) R4 [2, 3] | HitlevelM [1, 8] | HitlevelF [2, 9] | other results |
| --- | --- | --- | --- | --- | --- | --- | --- | --- | --- | --- | --- |
| CC(=O)N(Cc1ccc(CC(C)NCCc2cccc(Cl)c2)cc1)Cc1ccc(CC(C)NCCc2cccc(Cl)c2)cc1 (centres unmarked) [TCMDC-139678] | 26.9% | 39.1% | 19.2% | 27.9% | 14.1% | 15.3% | 11.1% | 16.3% |  |  | HitlevelM [1, 4]: 0; Activity [1, 5]: 0; HitlevelF [2, 6]: 0 |
| COc1ccc(CCNC(C)Cc2ccc(C(=O)Nc3ccc(CC(C)NCCc4cccc(Cl)c4)cc3)cc2)cc1 (centres unmarked) [TCMDC-139750] |  |  |  |  |  |  |  |  |  |  | Average inhibition male (%) [1, 7]: 69.1%; % inhibition male (individual replicates) R1 [1, 7]: 78.2%; % inhibition male (individual replicates) R3 [1, 7]: 37.9%; % inhibition male (individual replicates) R4 [1, 7]: 84.9%; HitlevelM ([1]; number of replicates with >50% inhibition in the male readout, 2µM): 3; Average inhibition female (%) [2, 7]: 25.6%; % inhibition female (individual replicates) R1 [2, 7]: 25.4%; % inhibition female (individual replicates) R3 [2, 7]: 18.2%; % inhibition female (individual replicates) R4 [2, 7]: 15.5%; HitlevelF ([2]; number of replicates with >50% inhibition in the female readout, 2µM): 0 |
| CC(CCCC(=O)Nc1ccc(CC(C)NCCc2cccc(Cl)c2)cc1)NCCc1cccc(Cl)c1 (centres unmarked) [TCMDC-139798] | 45.7% | 47.5% | 7.0% | 68.9% | 14.3% | 14.3% | 3.2% | 8.4% |  |  | HitlevelM [1, 4]: 2; Activity [1, 5]: 0; HitlevelF [2, 6]: 0 |
| CC(CCCCCC(=O)Nc1ccc(CC(C)NCCc2cccc(Cl)c2)cc1)NCCc1cccc(Cl)c1 (centres unmarked) [TCMDC-139800] | 45.2% | 25.8% | -13.9% | 77.6% | 20.4% | 18.8% | 1.8% | 5.6% | 2 | 1 |  |
| CCOc1ccccc1CCNC(C)Cc1ccc(C(=O)Nc2ccc(CC(C)NCCc3cccc(Cl)c3)cc2)cc1 (centres unmarked) [TCMDC-139805] | 59.5% | 59.5% | 21.2% | 86.9% | 24.4% | 22.1% | 9.3% | 29.9% | 3 | 0 |  |
| CC(Cc1ccc(COc2ccc(CC(CO)NCCc3cccc(Cl)c3)cc2)cc1)NCCc1cccc(Cl)c1.Cl (centres unmarked) [TCMDC-139844] |  |  |  |  |  |  |  |  |  |  | % inhibition male (individual replicates) R1 [1, 10]: -13.5%; % inhibition male (individual replicates) R3 [1, 10]: 14.9%; % inhibition male (individual replicates) R4 [1, 10]: 2.8%; Average inhibition male (%) [1, 5]: 1.7%; % inhibition female (individual replicates) R1 [2, 10]: -3.0%; % inhibition female (individual replicates) R3 [2, 10]: -11.7%; % inhibition female (individual replicates) R4 [2, 10]: 12.8%; Average inhibition female (%) [2, 5]: 1.7% |
| CC(Cc1ccc(NC(=O)c2ccc(CNCCc3ccccc3)cc2)cc1)NCCc1cccc(Cl)c1.Cl (centres unmarked) [TCMDC-139867] | 35.8% | 30.2% | 5.8% | 68.9% | 17.5% | 19.8% | 17.3% | 1.2% |  |  | HitlevelM [1, 4]: 1; Activity [1, 5]: 0; HitlevelF [2, 6]: 0 |
| CCCCCCCN1CC[C@@H](CCCc2ccnc3ccc(OC)cc23)[C@@H](CNC)C1.O=C(O)C(=O)O [TCMDC-139875] | 45.5% | 37.4% | 18.3% | 73.6% | 34.8% | 28.9% | 7.1% | 50.9% | 2 | 2 |  |
| COc1ccc(OC)c(C=CC(=O)NC2CCC(CN3CCC(c4c[nH]c5ccccc45)CC3)CC2)c1 (centres unmarked) [TCMDC-139893] |  |  |  |  |  |  |  |  |  |  | % inhibition male (individual replicates) R1 [1, 10]: 4.2%; % inhibition male (individual replicates) R3 [1, 10]: -21.0%; % inhibition male (individual replicates) R4 [1, 10]: 20.2%; Average inhibition male (%) [1, 5]: 1.9%; % inhibition female (individual replicates) R1 [2, 10]: 6.5%; % inhibition female (individual replicates) R3 [2, 10]: -21.7%; % inhibition female (individual replicates) R4 [2, 10]: -6.1%; Average inhibition female (%) [2, 5]: -1.6% |
| CN(C)CCCNCc1ccc(-c2ccc(C(F)(F)F)cc2)cc1 [TCMDC-140011] | 54.2% | 60.9% | 33.7% | 61.6% | 26.9% | 39.3% | -6.8% | 25.9% | 3 | 0 |  |
| OCc1c(Cl)cc(Cl)cc1CNCCCNc1nc2ccccc2[nH]1 [TCMDC-140012] |  |  |  |  |  |  |  |  |  |  | % inhibition male (individual replicates) R1 [1, 10]: -9.5%; % inhibition male (individual replicates) R4 [1, 10]: -7.6%; Average inhibition male (%) [1, 5]: -5.6%; % inhibition female (individual replicates) R1 [2, 10]: -1.6%; % inhibition female (individual replicates) R3 [2, 10]: -10.9%; % inhibition female (individual replicates) R4 [2, 10]: -3.1%; Average inhibition female (%) [2, 5]: -6.6% |
| Nc1ccc2[nH]cc(C3CCN(CCC4CCN(C(=O)/C=C/c5ccc(Cl)c(Cl)c5)CC4)CC3)c2n1 [TCMDC-140062] | 34.7% | 41.7% | -5.5% | 54.9% | 24.0% | 25.9% | 21.4% | 19.8% | 1 | 0 |  |
| O=C(/C=C/c1ccc(Cl)c(Cl)c1)N1CCC(CN2CCC(c3c[nH]c4ccncc34)CC2)CC1 [TCMDC-140074] | 29.9% | 24.9% | -2.0% | 40.2% | 19.7% | 24.3% | 8.2% | 6.7% | 1 | 0 |  |
| COc1cc(C(=O)NC2CCN(Cc3ccccc3)CC2)ccc1-c1nc2cc(Cl)c(Cl)cc2[nH]1 [TCMDC-140078] | 4.4% | 13.3% | 2.8% | 2.9% | 6.4% | 17.0% | -8.0% | 18.5% |  |  | HitlevelM [1, 4]: 0; Activity [1, 5]: 0; HitlevelF [2, 6]: 0 |
| CN(C)CCCOc1cccc(CCNCc2cccc(Oc3ccc(Cl)cc3)c2)c1.O=C(O)C(F)(F)F [TCMDC-140091] | 24.7% | 7.1% | 12.3% | 44.2% | 6.3% | 16.6% | -0.66% | -7.8% |  |  | HitlevelM [1, 4]: 0; Activity [1, 5]: 0; HitlevelF [2, 6]: 0 |
| CC(=O)Nc1ccc2[nH]cc(C3CCN(CC4CCC(NC(=O)/C=C/c5ccccc5Cl)CC4)CC3)c2n1 (centres unmarked) [TCMDC-140111] | 33.8% | 38.4% |  | 14.3% | 28.1% | 31.7% | 20.9% | 26.6% | 0 | 0 |  |
| CC(=O)Nc1ccc2[nH]cc(C3CCN(CC4CCN(C(=O)/C=C/c5ccc(Cl)c(Cl)c5)CC4)CC3)c2n1 [TCMDC-140112] | 36.8% | 41.7% | 26.0% | 45.6% | 33.3% | 35.7% | 28.7% | 36.0% | 0 | 0 |  |
